The text below walks through data of patent US20090221653A1, “7-(2-amino-1-hydroxy-ethyl)-4-hydroxybenzothiazol-2(3H)-one-derivatives as beta2 adrenoreceptor agonists” (AstraZeneca AB, priority 2005, published 2009).

The target in assay [1] is T1, Adrenergic β2 (Homo sapiens, UniProt P07550).
T1 construct: endogenous in cells; host or cells: H292 cells
Briefly: Alternative Adrenergic β2 Mediated cAMP Production in H292 cells (AlphaScreen cAMP detection). The class given is cell-based. To be noted: for EC50: cAMP, test compounds incubated 60 minutes, 300 μM rolipram, read-out: β2 pEC50 (converted); for β2 Int Act: fraction relative to the maximum activity determined for formoterol, 60 minutes incubation. How it is done:
H292 cells were grown in 225 cm2 flasks incubator at 37° C., 5% CO2 in RPMI medium containing, 10% (v/v) FBS (foetal bovine serum) and 2 mM L-glutamine.
Adherent H292 cells were removed from tissue culture flasks by treatment with Accutase™ cell detachment solution for 15 minutes. Flasks were incubated for 15 minutes in a humidified incubator at 37° C., 5% CO2. Detached cells were re-suspended in RPMI media (containing 10% (v/v) FBS and 2 mM L-glutamine) at 0.05×10^6 cells per mL. 5000 cells in 100 μL were added to each well of a tissue-culture-treated 96-well plate and the cells incubated overnight in a humidified incubator at 37° C., 5% CO2. The culture media was removed and cells were washed twice with 100 μL assay buffer and replaced with 50 μL assay buffer (HBSS solution containing 10 mM HEPES pH7.4 and 5 mM glucose). […] Cells were incubated with rolipram for 10 minutes after which time test compounds were added and the cells were incubated for 60 minutes at room temperature. […] The reaction was stopped by removing supernatants, washing once with 100 μL assay buffer and replacing with 50 μL lysis buffer. The cell monolayer was frozen at −80° C. for 30 minutes (or overnight).
The concentration of cAMP (cyclic adenosine monophosphate) in the cell lysate was determined using AlphaScreen™ methodology. The frozen cell plate was thawed for 20 minutes on a plate shaker then 10 μL of the cell lysate was transferred to a 96-well white plate. 40 μL of mixed AlphaScreen™ detection beads pre-incubated with biotinylated cAMP, was added to each well and the plate incubated at room temperature for 10 hours in the dark. The AlphaScreen™ signal was measured using an EnVision spectrophotometer (Perkin-Elmer Inc.) with the recommended manufacturer's settings. cAMP concentrations were determined by reference to a calibration curve determined in the same experiment using standard cAMP concentrations. Concentration response curves for agonists were constructed and data was fitted to a four parameter logistic equation to determine both the pEC50 and Intrinsic Activity.

In assay [2] the target is T2, recombinant human Dopamine Subtype D2s receptors (Homo sapiens, UniProt P14416).
T2 construct: purchased Perkin Elmer
T2 sequence (P14416 1-414 isoform P14416-2): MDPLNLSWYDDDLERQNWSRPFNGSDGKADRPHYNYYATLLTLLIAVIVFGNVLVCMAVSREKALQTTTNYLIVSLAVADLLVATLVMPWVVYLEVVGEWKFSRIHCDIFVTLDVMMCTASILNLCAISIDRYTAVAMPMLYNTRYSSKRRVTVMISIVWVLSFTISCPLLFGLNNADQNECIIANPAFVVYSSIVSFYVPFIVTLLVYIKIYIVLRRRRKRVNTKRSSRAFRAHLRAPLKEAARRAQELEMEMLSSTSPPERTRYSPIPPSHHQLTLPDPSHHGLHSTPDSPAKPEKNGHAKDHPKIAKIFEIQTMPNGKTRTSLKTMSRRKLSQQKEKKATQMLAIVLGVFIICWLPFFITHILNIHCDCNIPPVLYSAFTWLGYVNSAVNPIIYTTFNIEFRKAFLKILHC
Nature of the assay: Dopamine D2 selectivity assay, inhibition of [3H]-spiperone binding. To be noted: membranes, [3H]-spiperone 0.16 nM; read-out: D2 bind pIC50 (converted). How it is done: Membranes containing recombinant human Dopamine Subtype D2s receptors were obtained from Perkin Elmer. These were diluted in Assay Buffer ([…] HEPES, 1 mM EDTA, 120 mM NaCl, 0.1% gelatin, pH 7.4) to provide a final concentration of membranes that gave a clear window between maximum and minimum specific binding.
Assays were performed in U-bottomed 96-well polypropylene plates. […] For each assay plate 8 replicates were obtained for [^3H]-spiperone binding in the presence of 30 μL vehicle (10% (v/v) DMSO in Assay Buffer; defining maximum binding) or 30 μL Haloperidol (10 μM final concentration; defining non-specific binding (NSB)). Membranes were then added to achieve a final volume of 300 μL. The plates were incubated for 2 hours at room temperature and then filtered onto PEI coated GF/B filter plates, pre-soaked for 1 hour in Assay Buffer, using a 96-well plate Tomtec cell harvester. Five washes with 250 μL wash buffer (50 mM HEPES, 1 mM EDTA, 120 mM NaCl, pH 7.4) were performed at 4° C. to remove unbound radioactivity. The plates were dried then sealed from underneath using Packard plate sealers and MicroScint-O (50 μL) was added to each well. The plates were sealed (TopSeal A) and filter-bound radioactivity was measured with a scintillation counter (TopCount, Packard BioScience) using a 3-minute counting protocol. Total specific binding (B0) was determined by subtracting the mean NSB from the mean maximum binding. NSB values were also subtracted from values from all other wells.

Assay [3] addresses T3, recombinant human adrenergic beta 1 receptors (Homo sapiens, UniProt P08588).
T3 construct: purchased Euroscreen
Nature of the assay: Adrenergic β1 selectivity assay, inhibition of [125I]-Iodocyanopindolol binding. As to conditions: membranes, [125I]-Iodocyanopindolol; read-out: β1 bind pIC50 (converted). As to the method:
Membranes containing recombinant human adrenergic beta 1 receptors were obtained from Euroscreen. These were diluted in Assay Buffer (50 mM HEPES, 1 mM EDTA, 120 mM NaCl, 0.1% gelatin, pH 7.4) to provide a final concentration of membranes that gave a clear window between maximum and minimum specific binding.
Assays were performed in U-bottomed 96-well polypropylene plates. […] Membranes were then added to achieve a final volume of 100 μL. The plates were incubated for 2 hours at room temperature and then filtered onto PEI coated GF/B filter plates, pre-soaked for 1 hour in Assay Buffer, using a 96-well plate Tomtec cell harvester. Five washes with 250 μL wash buffer (50 mM HEPES, 1 mM EDTA, 120 mM NaCl, pH 7.4) were performed at 4° C. to remove unbound radioactivity. The plates were dried then sealed from underneath using Packard plate sealers and MicroScint-O (50 μL) was added to each well. The plates were sealed (TopSeal A) and filter-bound radioactivity was measured with a scintillation counter (TopCount, Packard BioScience) using a 3-minute counting protocol.
(§1) Total specific binding (B0) was determined by subtracting the mean NSB from the mean maximum binding. NSB values were also subtracted from values from all other wells.

Assay [4] deals with T4, recombinant human α1D receptor (Homo sapiens, UniProt P25100).
T4 construct: expressed in transfected cells; host or cells: HEK293
T4 sequence (P25100 1-572): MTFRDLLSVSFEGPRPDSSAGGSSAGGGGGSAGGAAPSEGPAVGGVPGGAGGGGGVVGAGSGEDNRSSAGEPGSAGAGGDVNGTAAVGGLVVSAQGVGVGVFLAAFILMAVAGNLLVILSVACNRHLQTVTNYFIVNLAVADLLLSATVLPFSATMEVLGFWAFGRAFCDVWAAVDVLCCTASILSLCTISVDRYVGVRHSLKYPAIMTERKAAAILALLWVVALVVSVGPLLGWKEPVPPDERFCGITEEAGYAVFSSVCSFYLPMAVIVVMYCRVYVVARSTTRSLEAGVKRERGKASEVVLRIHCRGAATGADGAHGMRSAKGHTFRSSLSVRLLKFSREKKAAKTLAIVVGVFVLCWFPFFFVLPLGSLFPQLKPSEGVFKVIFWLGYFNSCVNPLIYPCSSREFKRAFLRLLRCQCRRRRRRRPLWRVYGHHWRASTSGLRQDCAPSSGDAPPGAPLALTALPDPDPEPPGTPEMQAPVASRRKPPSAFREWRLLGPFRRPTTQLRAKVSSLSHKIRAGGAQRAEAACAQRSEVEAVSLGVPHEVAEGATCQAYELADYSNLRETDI
Nature of the assay: Adrenergic α1D selectivity assay, inhibition of [3H]-prazosin binding. To be noted: HEK293 membranes, [3H]-prazosin 0.3 nM; read-out: α1 bind pIC50 (converted). As to the method:
Membranes were prepared from human embryonic kidney 293 (HEK293) cells expressing recombinant human α1D receptor. These were diluted in Assay Buffer (50 mM HEPES, 1 mM EDTA, 0.1% gelatin, pH 7.4) to provide a final concentration of membranes that gave a clear window between maximum and minimum specific binding.
Assays were performed in U-bottomed 96-well polypropylene plates. 10 μL [^3H]-prazosin (0.3 nM final concentration) and 10 μL of test compound (10× final concentration) were added to each test well. For each assay plate 8 replicates were obtained for [^3H]-prazosin binding in the presence of 10 μL vehicle (10% (v/v) DMSO in Assay Buffer; defining maximum binding) or 10 μL BMY7378 (10 μM final concentration; defining non-specific binding (NSB)). Membranes were then added to achieve a final volume of 100 μL. The plates were incubated for 2 hours at room temperature and then filtered onto PEI coated GF/B filter plates, pre-soaked for 1 hour in Assay Buffer, using a 96-well plate Tomtec cell harvester. Five washes with 250 μL wash buffer (50 mM HEPES, 1 mM EDTA, pH 7.4) were performed at 4° C. to remove unbound radioactivity. The plates were dried then sealed from underneath using Packard plate sealers and MicroScint-O (50 μL) was added to each well. The plates were sealed (TopSeal A) and filter-bound radioactivity was measured with a scintillation counter (TopCount, Packard BioScience) using a 3-minute counting protocol.
as §1

Structures can show the parent of a compound that is named as a salt.

T1 sequence (P07550 whole entry): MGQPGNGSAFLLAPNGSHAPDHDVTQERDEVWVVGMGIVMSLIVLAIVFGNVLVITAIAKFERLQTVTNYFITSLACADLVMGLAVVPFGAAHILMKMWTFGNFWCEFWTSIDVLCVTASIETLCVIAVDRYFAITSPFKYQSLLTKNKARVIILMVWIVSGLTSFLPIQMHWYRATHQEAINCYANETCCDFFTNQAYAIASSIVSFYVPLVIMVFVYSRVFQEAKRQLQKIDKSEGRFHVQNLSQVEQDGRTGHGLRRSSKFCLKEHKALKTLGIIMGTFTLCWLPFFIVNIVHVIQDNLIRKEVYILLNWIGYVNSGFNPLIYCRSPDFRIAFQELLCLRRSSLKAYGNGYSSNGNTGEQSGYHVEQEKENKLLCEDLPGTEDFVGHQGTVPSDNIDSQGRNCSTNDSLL
T3 sequence (P08588 whole entry): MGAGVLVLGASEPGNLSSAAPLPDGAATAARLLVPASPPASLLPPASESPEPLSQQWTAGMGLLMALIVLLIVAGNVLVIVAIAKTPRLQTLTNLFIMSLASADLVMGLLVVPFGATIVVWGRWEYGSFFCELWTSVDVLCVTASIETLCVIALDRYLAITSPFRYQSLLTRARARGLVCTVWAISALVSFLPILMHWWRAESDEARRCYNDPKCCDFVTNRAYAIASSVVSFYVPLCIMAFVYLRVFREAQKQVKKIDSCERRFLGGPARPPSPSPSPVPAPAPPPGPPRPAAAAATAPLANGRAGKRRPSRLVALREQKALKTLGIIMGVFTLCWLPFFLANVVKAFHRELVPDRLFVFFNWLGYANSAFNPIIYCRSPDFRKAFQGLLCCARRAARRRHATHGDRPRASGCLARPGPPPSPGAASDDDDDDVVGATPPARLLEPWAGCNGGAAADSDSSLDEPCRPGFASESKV

On to `O=c1[nH]c2c(O)ccc([C@@H](O)CNCCCSCCOCCc3cccc4ccccc34)c2s1` [Example 1, 4-Hydroxy-7-((1R)-1-hydroxy-2-{[3-({2-[2-(1-naphthyl)ethoxy]ethyl}thio)propyl]-amino}ethyl)-1,3-benzothiazol-2(3H)-one trifluoroacetate], for which, in assay [1], the EC50 is 0.0001 µM and the “β2 Int Act” value is reported as 1. The IC50 in assay [2] was 0.2 µM.
Take `O=c1[nH]c2c(O)ccc([C@@H](O)CNCCCOCCOCCc3ccccc3)c2s1` [Example 3, 4-Hydroxy-7-[(1R)-1-hydroxy-2-({3-[2-(2-phenylethoxy)ethoxy]propyl}amino)ethyl]-1,3-benzothiazol-2(3H)-one trifluoroacetate]: in assay [1], the EC50 is 0.000126 µM and the “β2 Int Act” value worked out at 0.9.
For the molecule `Cl.O=c1[nH]c2c(O)ccc([C@@H](O)CNCCCSCCCOCCc3ccccc3)c2s1` [Example 6, 4-Hydroxy-7-{(1R)-1-hydroxy-2-[(3-{[3-(2-phenylethoxy)propyl]thio}propyl)amino]ethyl}-1,3-benzothiazol-2(3H)-one hydrochloride], in assay [1], the “β2 Int Act” value is listed as 0.9. Besides, the IC50 in assay [3] is 0.00398 µM.
For `O=c1[nH]c2c(O)ccc([C@@H](O)CNCCCOCCOCCc3cccc4ccccc34)c2s1` [Example 7, 4-Hydroxy-7-{(1R)-1-hydroxy-2-[(3-{2-[2-(1-naphthyl)ethoxy]ethoxy}propyl)amino]ethyl}-1,3-benzothiazol-2(3H)-one], in assay [1], the “β2 Int Act” value turned out to be 1.1. The IC50 in assay [4] was 0.631 µM.
As to `Cl.O=c1[nH]c2c(O)ccc([C@@H](O)CNCCCSCCOCCc3ccccc3)c2s1` [Example 9, 4-Hydroxy-7-{(1R)-1-hydroxy-2-[(3-{[2-(2-phenylethoxy)ethyl]thio}-propyl)amino]ethyl}-1,3-benzothiazol-2(3H)-one hydrochloride], the “β2 Int Act” value in assay [1] worked out at 1.
Take `Cl.O=c1[nH]c2c(O)ccc([C@@H](O)CNCCSCCCNCCc3ccccc3)c2s1` [Example 11, 4-Hydroxy-7-((1R)-1-hydroxy-2-{[2-({3-[(2-phenylethyl)amino]propyl}thio)ethyl]amino}ethyl)-1,3-benzothiazol-2(3H)-one hydrochloride]: the “β2 Int Act” value in assay [1] was 0.9. Besides, the IC50 is 0.126 µM in assay [4] and 0.251 µM in assay [3].
For the molecule `CCc1ccc(CCNCCCSCCNC[C@H](O)c2ccc(O)c3[nH]c(=O)sc23)cc1` [Example 14, 7-[(1R)-2-({2-[(3-{[2-(4-Ethylphenyl)ethyl]amino}propyl)thio]ethyl}amino)-1-hydroxyethyl]-4-hydroxy-1,3-benzothiazol-2(3H)-one], in assay [1], the EC50 was 0.00398 µM. The “β2 Int Act” value in assay [1] is given as 0.9. Moreover, the IC50 in assay [4] is 0.1 µM; in assay [3], 0.0501 µM.
In the case of `CCOc1ccc(CCNCCCSCCNC[C@H](O)c2ccc(O)c3[nH]c(=O)sc23)cc1` [Example 16, 7-[(1R)-2-({2-[(3-{[2-(4-Ethoxyphenyl)ethyl]amino}propyl)thio]ethyl}amino)-1-hydroxyethyl]-4-hydroxy-1,3-benzothiazol-2(3H)-one], in assay [1], the “β2 Int Act” value was 0.7. Further, the IC50 in assay [4] was 1.58 µM.
Consider `O=c1[nH]c2c(O)ccc([C@@H](O)CNCCSCCCNCCc3cccc(C(F)(F)F)c3)c2s1` [Example 18, 4-Hydroxy-7-{(1R)-1-hydroxy-2-[(2-{[3-({2-[3-(trifluoromethyl)phenyl]ethyl}amino)propyl]thio}ethyl)amino]ethyl}-1,3-benzothiazol-2(3H)-one], for which, in assay [1], the EC50 was 0.00316 µM and the “β2 Int Act” value is reported as 0.8. For the same molecule, in assay [4], the IC50 was 0.251 µM. Further, the IC50 in assay [3] was 0.1 µM.
In the case of `O=c1[nH]c2c(O)ccc([C@@H](O)CNCCSCCCNCCc3ccccc3Cl)c2s1` [Example 20, 7-[(1R)-2-({2-[(3-{[2-(2-Chlorophenyl)ethyl]amino}propyl)thio]ethyl}amino)-1-hydroxyethyl]-4-hydroxy-1,3-benzothiazol-2(3H)-one], the “β2 Int Act” value in assay [1] was 0.8. Moreover, in assay [4], the IC50 is 0.0251 µM.
For the molecule `O=c1[nH]c2c(O)ccc([C@@H](O)CNCCOCCCNCCc3cccc(Cl)c3)c2s1` [Example 36, 7-((1R)-2-{[2-(3-{[2-(3-Chlorophenyl)ethyl]amino}propoxy)ethyl]amino}-1-hydroxyethyl)-4-hydroxy-1,3-benzothiazol-2(3H)-one], in assay [1], the “β2 Int Act” value amounted to 1. The IC50 in assay [3] is 0.1 µM.
Take `O=c1[nH]c2c(O)ccc([C@@H](O)CNCCSCCCNCCc3cccc(Cl)c3)c2s1` [Example 40, 7-[(1R)-2-({2-[(3-{[2-(3-Chlorophenyl)ethyl]amino}propyl)thio]ethyl}amino)-1-hydroxyethyl]-4-hydroxy-1,3-benzothiazol-2(3H)-one dihydrochloride]: in assay [1], the EC50 was 0.001 µM and the “β2 Int Act” value was 0.8.
